Measurements as given in patent US4824955A, “Selenium oxy chloride-pyridine or bipyridine complexes” (Nippon Kayaku Kabushiki Kaisha, priority 1985, dated 1989).
Where “and” joins values, the source holds several entries; their conditions need not be identical. Identical values can stand only once. Like-named read-outs stand apart in the source and are kept apart here.

What was measured:
in vivo = conditions: mouse, ip, LD50, intraperitoneal, once a day, 7 days, mice
Enrlich carcinoma = assay: Antineoplastic activity against Enrlich carcinoma (life prolongation rate); type: in vivo, 5-week-old ICR mice (male); parameters: response vs control in vivo: dose or concentration left out as unconfirmed; conditions: for response vs control in vivo at 2 mg/kg / response vs control in vivo at 4 mg/kg / response vs control in vivo at 8 mg/kg / response vs control in vivo at 16 mg/kg / response vs control in vivo / response vs control in vivo at 1 mg/kg: Mus musculus, ip, 1440 h, read-out: Life prolongation rate (T/C %); for response vs control in vivo at 1 mg/kg: 1.0 mg/kg/day
Description: Approximately 10^6 cells/0.2 ml of Enrlich carcinoma were inoculated into the abdominal cavity of each of the 5-week-old ICR mice (male) used for the test, and the test compounds were administered intraperitoneally to the mice of the treated group once a day for a period of 7 days, starting from the day after said inoculation. The mice of the control group was administered with a saline solution in the same way. Observation of the animals of both groups was continued for 60 days after the administration, and the life prolongation rate (T/C%, T/C×100) was determined from the average duration (days) of life of the mice of the treated group (T) and that of the mice of the control group (C).

[1] = 2.0 mg/kg/day, intraperitoneal, once a day, 7 days
[2] = 8.0 mg/kg/day, intraperitoneal, once a day, 7 days
[3] = […], intraperitoneal, (Note 1) administered for 4 days
[4] = intraperitoneal, once a day, 7 days
[5] = […], intraperitoneal, once a day, 7 days
[6] = […], intraperitoneal, (Note 2) administered for 2 days

c1ccncc1 [Compound 1-1, Selenium oxybromide-pyridine (1:2) complex]
LD50 (in vivo): 8 to 16 mg/kg | Life prolongation rate (T/C %) (Enrlich carcinoma; mouse, in vivo): 165% and 173% and 181% and 130%

Cc1ccccn1 [Compound 1-2, Selenium oxychloride-2-picoline (1:2) complex]
LD50 (in vivo): 8 to 16 mg/kg | response vs control in vivo at 2 mg/kg (Enrlich carcinoma): 176% | response vs control in vivo at 4 mg/kg (Enrlich carcinoma): 169% | response vs control in vivo at 8 mg/kg (Enrlich carcinoma): 194% | response vs control in vivo at 16 mg/kg (Enrlich carcinoma): 75%

CCc1ccncc1 [Compound 1-6, Selenium oxychloride-4-ethylpyridine (1:2) complex]
LD50 (in vivo): 8 to 16 mg/kg | response vs control in vivo at 2 mg/kg (Enrlich carcinoma; [1]): 173% | response vs control in vivo at 8 mg/kg (Enrlich carcinoma; [2]): 244% | response vs control in vivo at 16 mg/kg (Enrlich carcinoma; [3]): 103% | response vs control in vivo (Enrlich carcinoma; [4]): 209%

CC(C)c1ccncc1 [Compound 1-7, Selenium oxychloride-4-isopropylpyridine (1:2) complex]
LD50 (in vivo): 8 to 16 mg/kg | response vs control in vivo at 8 mg/kg (Enrlich carcinoma; [2]): 256% | response vs control in vivo at 16 mg/kg (Enrlich carcinoma; [3]): 201% | response vs control in vivo (Enrlich carcinoma; [4]): 222%

c1ccc(-c2cccnc2)cc1 [Compound 1-10, Selenium oxychloride-3-phenylpyridine (1:2) complex]
LD50 (in vivo): > 16 mg/kg | response vs control in vivo at 2 mg/kg (Enrlich carcinoma; [1]): 251% | response vs control in vivo at 8 mg/kg (Enrlich carcinoma; [2]): 203% | response vs control in vivo at 16 mg/kg (Enrlich carcinoma; [5]): 199% | response vs control in vivo (Enrlich carcinoma; [4]): 192%

c1ccc(-c2ccncc2)cc1 [Compound 1-11, Selenium oxychloride-4-phenylpyridine (1:2) complex]
LD50 (in vivo): > 16 mg/kg | response vs control in vivo at 2 mg/kg (Enrlich carcinoma; [1]): 166% | response vs control in vivo at 8 mg/kg (Enrlich carcinoma; [2]): 230% | response vs control in vivo at 16 mg/kg (Enrlich carcinoma; [5]): 221%

Fc1cccnc1 [Compound 1-12, Selenium oxychloride-3-fluoropyridine (1:2) complex]
LD50 (in vivo): 8 to 16 mg/kg | response vs control in vivo at 2 mg/kg (Enrlich carcinoma; [1]): 194% | response vs control in vivo at 8 mg/kg (Enrlich carcinoma; [2]): 201% | response vs control in vivo at 16 mg/kg (Enrlich carcinoma; [6]): 140% | response vs control in vivo (Enrlich carcinoma; [4]): 219%

Clc1cccnc1 [Compound 1-13, Selenium oxychloride-3-chloropyridine (1:2) complex]
LD50 (in vivo): 8 to 16 mg/kg | response vs control in vivo at 2 mg/kg (Enrlich carcinoma): 142% | response vs control in vivo at 4 mg/kg (Enrlich carcinoma): 172% | response vs control in vivo at 8 mg/kg (Enrlich carcinoma): 158% | response vs control in vivo at 16 mg/kg (Enrlich carcinoma): 84%

Brc1cccnc1 [Compound 1-14, Selenium oxychloride-3-bromopyridine (1:2) complex]
LD50 (in vivo): 8 to 16 mg/kg | response vs control in vivo at 2 mg/kg (Enrlich carcinoma; [1]): 163% | response vs control in vivo at 8 mg/kg (Enrlich carcinoma; [2]): 202% | response vs control in vivo at 16 mg/kg (Enrlich carcinoma; [3]): 147% | response vs control in vivo (Enrlich carcinoma; [4]): 179%

Clc1cncc(Cl)c1 [Compound 1-15, Selenium oxychloride-3,5-dichlorpyridine (1:2) complex]
LD50 (in vivo): 8 to 16 mg/kg | response vs control in vivo at 2 mg/kg (Enrlich carcinoma; [1]): 154% | response vs control in vivo at 8 mg/kg (Enrlich carcinoma; [2]): 191% | response vs control in vivo at 16 mg/kg (Enrlich carcinoma; [3]): 162% | response vs control in vivo (Enrlich carcinoma; [4]): 174%

Cn1cncc1Br [Compound 1-28, Selenium oxychloride-1-methyl-5-bromoimidazole (1:2) complex]
LD50 (in vivo): > 16 mg/kg | response vs control in vivo at 8 mg/kg (Enrlich carcinoma; [2]): 215% | response vs control in vivo at 16 mg/kg (Enrlich carcinoma; [3]): 264% | response vs control in vivo (Enrlich carcinoma; [4]): 217%

Cn1c(=O)c2c(ncn2Cc2ccccc2)n(C)c1=O [Compound 1-33, Selenium oxychloride-N--benzyltheophylline (1:2) complex]
LD50 (in vivo): > 16 mg/kg | response vs control in vivo at 2 mg/kg (Enrlich carcinoma; [1]): 138% | response vs control in vivo at 8 mg/kg (Enrlich carcinoma; [2]): 214% | response vs control in vivo at 16 mg/kg (Enrlich carcinoma; [5]): 205%

Cn1cnc2c1c(=O)n(Cc1ccccc1)c(=O)n2C [Compound 1-34, Selenium oxychloride-N--benzyltheobromine (1:2) complex]
LD50 (in vivo): > 16 mg/kg | response vs control in vivo at 2 mg/kg (Enrlich carcinoma; [1]): 122% | response vs control in vivo at 8 mg/kg (Enrlich carcinoma; [2]): 187% | response vs control in vivo at 16 mg/kg (Enrlich carcinoma; [5]): 190% | response vs control in vivo (Enrlich carcinoma; [4]): 159%

O=P(c1ccccc1)(c1ccccc1)c1ccccc1 [Compound 1-36, Selenium oxycloride-triphenylphosphine oxide (1:2) complex]
LD50 (in vivo): > 16 mg/kg | response vs control in vivo at 2 mg/kg (Enrlich carcinoma; [1]): 155% | response vs control in vivo at 16 mg/kg (Enrlich carcinoma; [5]): 197% | response vs control in vivo (Enrlich carcinoma; [4]): 186%

N#Cc1cccnc1 [Compound 2-7, Tetrachloroselenium-3-cyanopyridine (1:2) complex]
LD50 (in vivo): 8 to 16 mg/kg | response vs control in vivo at 2 mg/kg (Enrlich carcinoma; 2.0 mg/kg/day, intraperitoneal, 7 days, solvent used: DMSO): 201% | response vs control in vivo at 8 mg/kg (Enrlich carcinoma; 8.0 mg/kg/day, intraperitoneal, 7 days, solvent used: DMSO): 214% | response vs control in vivo at 16 mg/kg (Enrlich carcinoma; […], intraperitoneal, 7 days, solvent used: DMSO): 67% | response vs control in vivo (Enrlich carcinoma; intraperitoneal, 7 days, solvent used: DMSO): 243%

CC(Cl)C(C)O[Se](=O)OC(C)C(C)Cl (stereo not drawn) [Compound 3-1, Di-(2-chloro-1-methylpropyl)-selenite]
LD50 (in vivo): 8 to 16 mg/kg | response vs control in vivo at 2 mg/kg (Enrlich carcinoma; [1]): 177% | response vs control in vivo at 8 mg/kg (Enrlich carcinoma; [2]): 193% | response vs control in vivo at 16 mg/kg (Enrlich carcinoma; [5]): 90% | response vs control in vivo (Enrlich carcinoma; [4]): 179%

CC(C)(Cl)CO[Se](=O)OCC(C)(C)Cl [Compound 3-2, Di-(2-chloro-2-methylpropyl)-selenite]
LD50 (in vivo): 8 to 16 mg/kg | response vs control in vivo at 2 mg/kg (Enrlich carcinoma; [1]): 178% | response vs control in vivo at 8 mg/kg (Enrlich carcinoma; [2]): 207% | response vs control in vivo at 16 mg/kg (Enrlich carcinoma; [6]): 63% | response vs control in vivo (Enrlich carcinoma; [4]): 232%

CCC(Cl)CO[Se](=O)OCC(Cl)CC (stereo not drawn) [Compound 3-3, Di-(2-chlorobutyl)selenite]
LD50 (in vivo): > 8 mg/kg | response vs control in vivo at 1 mg/kg (Enrlich carcinoma; [4]): 172% | response vs control in vivo at 2 mg/kg (Enrlich carcinoma; [1]): 205% | response vs control in vivo at 8 mg/kg (Enrlich carcinoma; [2]): 212% | response vs control in vivo (Enrlich carcinoma; [4]): 230%

CCCCCCC(Cl)CO[Se](=O)OCC(Cl)CCCCCC (stereo not drawn) [Compound 3-4, Di-(2-chlorooctyl)selenite]
LD50 (in vivo): 8 to 16 mg/kg | response vs control in vivo at 2 mg/kg (Enrlich carcinoma; [1]): 156% | response vs control in vivo at 8 mg/kg (Enrlich carcinoma; [2]): 180% | response vs control in vivo at 16 mg/kg (Enrlich carcinoma; [3]): 53% | response vs control in vivo (Enrlich carcinoma; [4]): 208%

O=[Se](OCC(Cl)c1ccccc1)OCC(Cl)c1ccccc1 (stereo not drawn) [Compound 3-5]
LD50 (in vivo): > 16 mg/kg | response vs control in vivo at 2 mg/kg (Enrlich carcinoma; [1]): 154% | response vs control in vivo at 8 mg/kg (Enrlich carcinoma; [2]): 223% | response vs control in vivo at 16 mg/kg (Enrlich carcinoma; […], intraperitoneal, (Note 5) administered for 6 days): 167% | response vs control in vivo (Enrlich carcinoma; [4]): 194%

O=[Se](OC1CCCCC1Cl)OC1CCCCC1Cl (stereo not drawn) [Compound 3-6, Di-(2-chlorcyclohexyl)selenite]
LD50 (in vivo): 8 to 16 mg/kg | response vs control in vivo at 2 mg/kg (Enrlich carcinoma; [1]): 210% | response vs control in vivo at 8 mg/kg (Enrlich carcinoma; [2]): 253% | response vs control in vivo at 16 mg/kg (Enrlich carcinoma; […], intraperitoneal, (Note 3) administered for 3 days): 95% | response vs control in vivo (Enrlich carcinoma; [4]): 216%

O=[Se](OC1C2CCC(C2)C1Cl)OC1C2CCC(C2)C1Cl (stereo not drawn) [Compound 3-7, Di-(3-chloronorbonyl-2-il)selenite]
LD50 (in vivo): 8 to 16 mg/kg | response vs control in vivo at 2 mg/kg (Enrlich carcinoma; [1]): 143% | response vs control in vivo at 8 mg/kg (Enrlich carcinoma; [2]): 201% | response vs control in vivo at 16 mg/kg (Enrlich carcinoma; [3]): 119% | response vs control in vivo (Enrlich carcinoma; [4]): 148%

CCC1CO[Se](=O)O1 (stereo not drawn) [Compound 3-8, 1,2-butanediolselenite]
LD50 (in vivo): > 8 mg/kg | response vs control in vivo at 1 mg/kg (Enrlich carcinoma; [4]): 208% | response vs control in vivo at 2 mg/kg (Enrlich carcinoma; [1]): 250% | response vs control in vivo at 8 mg/kg (Enrlich carcinoma; [2]): 212% | response vs control in vivo (Enrlich carcinoma; [4]): 194%

CCC1(CC)CO[Se](=O)OC1 [Compound 3-9, 2,2-diethyl-1,3-propanediolselenite]
LD50 (in vivo): > 16 mg/kg | response vs control in vivo at 2 mg/kg (Enrlich carcinoma; [1]): 152% | response vs control in vivo at 8 mg/kg (Enrlich carcinoma; [2]): 223% | response vs control in vivo at 16 mg/kg (Enrlich carcinoma; [5]): 194% | response vs control in vivo (Enrlich carcinoma; [4]): 204%

CN(C)c1ccncc1 [Compound 3-12, Selenium oxychloride-4-dimethylaminopyridine (1:2) complex]
LD50 (in vivo): > 16 mg/kg | response vs control in vivo at 2 mg/kg (Enrlich carcinoma): 169% | response vs control in vivo at 4 mg/kg (Enrlich carcinoma): 183% | response vs control in vivo at 8 mg/kg (Enrlich carcinoma): 232% | response vs control in vivo at 16 mg/kg (Enrlich carcinoma): 190%
